Assay results taken from ChEMBL document CHEMBL1130736, “Syntheses of new modified Phe-Pro peptides. Use of proline replacements in potential HIV inhibitors” (Bioorg Med Chem Lett, 1998).
Peptide text beside a SMILES is read from it. * marks the point of attachment. Boc = CC(C)(C)OC(=O)*

What was measured:
[1] = Partition coefficient (logP); type: physicochemical; conditions: octanol/water
[2] = test system: MT4; experiment: Concentration required to cause 50% death of uninfected MT-4 cells; type: functional; conditions: Homo sapiens
[3] = test system: MT4; experiment: Concentration required to inhibit syncytia formation by 50% in HIV infected HIV-BRU MT-4 cells; type: functional, cell-based, Homo sapiens
[4] = Homo sapiens, MT4, read-out: IC50

## O=C1CCN(C(=O)[C@H](Cc2ccccc2)NC(=O)OCc2ccccc2)C1
[1]
  logP: 3.97
[2]
  CC50: 50 µM
[3]; [4]
  IC50: 1 µM

## O=C1CCN(C(=O)[C@H](Cc2ccccc2)NC(=O)N(c2ccccc2)c2ccccc2)C1
[1]
  logP: 4.86
[2]
  CC50: > 100 µM
[3]; mt4
  IC50: Not Active

## CN(C(=O)N[C@@H](Cc1ccccc1)C(=O)N1CCC(=O)C1)c1ccccc1
[1]
  logP: 3.33
[2]
  CC50: 50 µM
[3]; mt4
  IC50: Not Active

## CC(C)(C)OC(=O)N[C@@H](Cc1ccccc1)C(=O)N1CCC(=O)C1
[1]
  logP: 3.97
[2]
  CC50: 100 µM
[3]; [4]
  IC50: 10 µM

## O=C1CCN(C(=O)[C@H](Cc2ccccc2)NC(=O)c2ccccc2)C1
[1]
  logP: 3.17
[2]
  CC50: 50 µM
[3]; mt4
  IC50: Not Active

## CC(C)(C)OC(=O)N[C@@H](Cc1ccccc1)C(=O)N1CCC(O)C1 (stereo not given in full)
[1]
  logP: 3.15
[2]
  CC50: 100 µM
[3]; [4]
  IC50: 50 µM

## CCCCCCCCOC(=O)N[C@@H](Cc1ccccc1)C(=O)N1CCC(=O)C1
[1]
  logP: 5.38
[2]
  CC50: 50 µM
[3]; mt4
  IC50: Not Active

## O=C1CCN(C(=O)[C@H](Cc2ccccc2)NC(=O)c2ccc3ccccc3n2)C1
[1]
  logP: 3.44
[2]
  CC50: > 100 µM
[3]; [4]
  IC50: 10 µM

## O=C1CCN(C(=O)[C@H](Cc2ccccc2)NC(=O)c2cccnc2)C1
[1]
  logP: 2.31
[2]
  CC50: > 100 µM
[3]; [4]
  IC50: 0.1 µM

## CC(C)(C)OC(=O)N[C@@H](Cc1ccccc1)C(=O)N1CCC[C@H]1C(=O)O (Boc-Phe-Pro-OH)
[1]
  logP: 3.96
[2]
  CC50: > 100 µM
[3]; mt4
  IC50: Not Active
